Assay results from publication PMC11520566, “Discovery of pyrazole-based analogs as CDK2 inhibitors with apoptotic-inducing activity: design, synthesis and molecular dynamics study” (RSC Advances, 2024).

How the values were obtained:
[1] = test system: HL-60(TB); assay: NCI 60 five dose assay, Leukemia; format: cell-based, human
[2] = test system: MOLT-4; assay: NCI 60 five dose assay, Leukemia; format: cell-based, human
[3] = test system: NCI-H23; assay: NCI 60 five dose assay, Non-small cell lung cancer; format: cell-based, human
[4] = test system: COLO 205; assay: NCI 60 five dose assay, Colon cancer; format: cell-based, human
[5] = test system: HCT-116; assay: NCI 60 five dose assay, Colon cancer; format: cell-based, human
[6] = test system: SF-539; assay: NCI 60 five dose assay, CNS cancer; format: cell-based, human
[7] = test system: U251; assay: NCI 60 five dose assay, CNS cancer; format: cell-based, human
[8] = test system: LOX IMVI; assay: NCI 60 five dose assay, Melanoma; format: cell-based, human
[9] = test system: MALME-3M; assay: NCI 60 five dose assay, Melanoma; format: cell-based, human; conditions: for Percent Growth: MALME-3M
[10] = test system: IGROV1; assay: NCI 60 five dose assay, Ovarian cancer; format: cell-based, human
[11] = test system: OVCAR-8; assay: NCI 60 five dose assay, Ovarian cancer; format: cell-based, human
[12] = test system: 786-0; assay: NCI 60 five dose assay, Renal cancer; format: cell-based, human
[13] = test system: RXF 393; assay: NCI 60 five dose assay, Renal cancer; format: cell-based, human
[14] = test system: UO-31; assay: NCI 60 five dose assay, Renal cancer; format: cell-based, human
[15] = test system: HS 578T; assay: NCI 60 five dose assay, Breast cancer; format: cell-based, human
[16] = test system: HCT-116 cells; assay: Flow cytometric analysis of apoptosis (Annexin V-FITC/PI); format: cell-based; conditions: 1.806 μM, 48 h
Description: For the detection of apoptosis in the treated cells, the Annexin V-FITC-apoptosis detection kit (PN IM3546) was used, followed by flow cytometric analysis according to the manufacturer's protocol. In this assay, HCT-116 cells were allowed to grow in a […] flask until 70–80% confluence. Then, the HCT-116 cells were treated with compound 4 for 48 h, followed by washing with PBS, and suspended in binding buffer. To […] of the cell suspension, […] of annexin V-FITC solution and […] of dissolved PI were added and incubated for 15 min in the dark. Then […] of ice-cold binding buffer was added and mixed gently. The flow cytometric analysis of the percentage of apoptotic cells was performed on a COULTER® EPICS® XL™ Flow Cytometer (USA).[35]

[17] = Homo sapiens, read-out: LC50 (the source's name)

CC(=NNc1ccc(S(N)(=O)=O)cc1)c1ccc(NN=C2C(=O)NN=C2Nc2ccccc2)cc1 [Compound 4, 4-(2-(1-(4-(2-(5-oxo-3-(phenylamino)-1,5-dihydro-4H-pyrazol-4-ylidene)hydrazinyl)phenyl)ethylidene)hydrazinyl)benzene sulfonamide]
GI50 ([1]; Homo sapiens): 2.86 µM | CC50 [1, 17]: 60.5 µM | Percent Growth ([1]; Log10 Concentration -4.0 Molar): -70% | Percent Growth ([1]; Log10 Concentration -5.0 Molar): 21% | Percent Growth ([1]; Log10 Concentration -6.0 Molar): 74% | Percent Growth ([1]; Log10 Concentration -7.0 Molar): 87% | Percent Growth ([1]; Log10 Concentration -8.0 Molar): 89% | GI50 ([2]; Homo sapiens): 1.64 µM | CC50 [2, 17]: 34.9 µM | Percent Growth ([2]; Log10 Concentration -4.0 Molar): -69% | Percent Growth ([2]; Log10 Concentration -5.0 Molar): -28% | Percent Growth ([2]; Log10 Concentration -6.0 Molar): 71% | Percent Growth ([2]; Log10 Concentration -7.0 Molar): 95% | Percent Growth ([2]; Log10 Concentration -8.0 Molar): 96% | GI50 ([3]; Homo sapiens): 2.54 µM | CC50 [3, 17]: 23.1 µM | Percent Growth ([3]; Log10 Concentration -4.0 Molar): -98% | Percent Growth ([3]; Log10 Concentration -5.0 Molar): -23% | Percent Growth ([3]; Log10 Concentration -6.0 Molar): 99% | Percent Growth ([3]; Log10 Concentration -7.0 Molar): 105% | Percent Growth ([3]; Log10 Concentration -8.0 Molar): 105% | GI50 ([4]; Homo sapiens): 3.28 µM | CC50 [4, 17]: 34.6 µM | Percent Growth ([4]; Log10 Concentration -4.0 Molar): -100% | Percent Growth ([4]; Log10 Concentration -5.0 Molar): 9% | Percent Growth ([4]; Log10 Concentration -6.0 Molar): 94% | Percent Growth ([4]; Log10 Concentration -7.0 Molar): 105% | Percent Growth ([4]; Log10 Concentration -8.0 Molar): 101% | GI50 ([5]; Homo sapiens): 3.04 µM | CC50 [5, 17]: 32 µM | Percent Growth ([5]; Log10 Concentration -4.0 Molar): -100% | Percent Growth ([5]; Log10 Concentration -5.0 Molar): 1% | Percent Growth ([5]; Log10 Concentration -6.0 Molar): 96% | Percent Growth ([5]; Log10 Concentration -7.0 Molar): 104% | Percent Growth ([5]; Log10 Concentration -8.0 Molar): 98% | GI50 ([6]; Homo sapiens): 1.58 µM | CC50 [6, 17]: 8.56 µM | Percent Growth ([6]; Log10 Concentration -4.0 Molar): -100% | Percent Growth ([6]; Log10 Concentration -5.0 Molar): -59% | Percent Growth ([6]; Log10 Concentration -6.0 Molar): 77% | Percent Growth ([6]; Log10 Concentration -7.0 Molar): 94% | Percent Growth ([6]; Log10 Concentration -8.0 Molar): 89% | GI50 ([7]; Homo sapiens, U-251): 1.88 µM | CC50 ([7]; Homo sapiens, U-251, read-out: LC50 (the source's name)): 7.51 µM | Percent Growth ([7]; Log10 Concentration -4.0 Molar): -100% | Percent Growth ([7]; Log10 Concentration -5.0 Molar): -71% | Percent Growth ([7]; Log10 Concentration -6.0 Molar): 96% | Percent Growth ([7]; Log10 Concentration -7.0 Molar): 105% | Percent Growth ([7]; Log10 Concentration -8.0 Molar): 95% | GI50 ([8]; Homo sapiens): 2.13 µM | CC50 [8, 17]: 8.81 µM | Percent Growth ([8]; Log10 Concentration -4.0 Molar): -100% | Percent Growth ([8]; Log10 Concentration -5.0 Molar): -59% | Percent Growth ([8]; Log10 Concentration -6.0 Molar): 103% | Percent Growth ([8]; Log10 Concentration -7.0 Molar): 102% | Percent Growth ([8]; Log10 Concentration -8.0 Molar): 98% | GI50 ([9]; Homo sapiens, Malme-3M): 1.98 µM | CC50 ([9]; Homo sapiens, Malme-3M, read-out: LC50 (the source's name)): 7.49 µM | Percent Growth ([9]; Log10 Concentration -4.0 Molar): -100% | Percent Growth ([9]; Log10 Concentration -5.0 Molar): -72% | Percent Growth ([9]; Log10 Concentration -6.0 Molar): 102% | Percent Growth ([9]; Log10 Concentration -7.0 Molar): 97% | Percent Growth ([9]; Log10 Concentration -8.0 Molar): 89% | GI50 ([10]; Homo sapiens, IGROV-1): 4.5 µM | CC50 ([10]; Homo sapiens, IGROV-1, read-out: LC50 (the source's name)): 43.2 µM | Percent Growth ([10]; Log10 Concentration -4.0 Molar): -97% | Percent Growth ([10]; Log10 Concentration -5.0 Molar): 32% | Percent Growth ([10]; Log10 Concentration -6.0 Molar): 85% | Percent Growth ([10]; Log10 Concentration -7.0 Molar): 94% | Percent Growth ([10]; Log10 Concentration -8.0 Molar): 90% | GI50 ([11]; Homo sapiens): 2.59 µM | CC50 [11, 17]: 29 µM | Percent Growth ([11]; Log10 Concentration -4.0 Molar): -95% | Percent Growth ([11]; Log10 Concentration -5.0 Molar): -11% | Percent Growth ([11]; Log10 Concentration -6.0 Molar): 93% | Percent Growth ([11]; Log10 Concentration -7.0 Molar): 105% | Percent Growth ([11]; Log10 Concentration -8.0 Molar): 97% | GI50 ([12]; Homo sapiens): 2.14 µM | CC50 [12, 17]: 24.7 µM | Percent Growth ([12]; Log10 Concentration -4.0 Molar): -94% | Percent Growth ([12]; Log10 Concentration -5.0 Molar): -22% | Percent Growth ([12]; Log10 Concentration -6.0 Molar): 85% | Percent Growth ([12]; Log10 Concentration -7.0 Molar): 96% | Percent Growth ([12]; Log10 Concentration -8.0 Molar): 92% | GI50 ([13]; Homo sapiens): 1.1 µM | CC50 [13, 17]: 21.1 µM | Percent Growth ([13]; Log10 Concentration -4.0 Molar): -76% | Percent Growth ([13]; Log10 Concentration -5.0 Molar): -37% | Percent Growth ([13]; Log10 Concentration -6.0 Molar): 54% | Percent Growth ([13]; Log10 Concentration -7.0 Molar): 99% | Percent Growth ([13]; Log10 Concentration -8.0 Molar): 103% | GI50 ([14]; Homo sapiens): 19.4 µM | CC50 [14, 17]: > 100 µM | Percent Growth ([14]; Log10 Concentration -4.0 Molar): 2% | Percent Growth ([14]; Log10 Concentration -5.0 Molar): 69% | Percent Growth ([14]; Log10 Concentration -6.0 Molar): 81% | Percent Growth ([14]; Log10 Concentration -7.0 Molar): 89% | Percent Growth ([14]; Log10 Concentration -8.0 Molar): 84% | GI50 ([15]; Homo sapiens): 3.31 µM | CC50 [15, 17]: > 100 µM | Percent Growth ([15]; Log10 Concentration -4.0 Molar): -28% | Percent Growth ([15]; Log10 Concentration -5.0 Molar): 11% | Percent Growth ([15]; Log10 Concentration -6.0 Molar): 92% | Percent Growth ([15]; Log10 Concentration -7.0 Molar): 93% | Percent Growth ([15]; Log10 Concentration -8.0 Molar): 85% | Apoptosis, Late ([16]; control 0.13): 15.81% | Apoptosis, Early ([16]; control 0.35): 4.63% | Necrosis ([16]; control 1.58): 7.21% | Apoptosis, Total ([16]; control 2.06): 27.65%
